The record followed here is article PMC2195891 (2006).

In this experiment the test system is human telomeric quadruplex (Htelo), 5'-biotin SPR strand (DNA, G4) GTTAGGGTTAGGGTTAGGGTTAGGGTTAGG
Description: SPR, equilibrium response. The following applies: K+ 100 mM (KCl), 50 mM Tris-HCl pH 7.4. A general note: In SPR one partner is held on a chip, and binding of the other changes the refractive index at the surface.

On to `C[n+]1ccc(-c2c3nc(c(-c4cc[n+](C)cc4)c4ccc([nH]4)c(-c4cc[n+](C)cc4)c4nc(c(-c5cc[n+](C)cc5)c5ccc2[nH]5)C=C4)C=C3)cc1`, for which the dissociation constant (KD) (in general, the concentration at which binding is half-saturated) (up to 6.25 μM) stood at 0.63 ± 0.08 µM.

`C[n+]1ccc(-c2c3nc(c(-c4cc[n+](C)cc4)c4ccc([nH]4)c(-c4cc[n+](C)cc4)c4nc(cc5ccc2[nH]5)C=C4)C=C3)cc1` came in with a KD (up to 25 μM) of 5.88 ± 0.90 µM.

As for `C[n+]1ccc(-c2c3nc(c(-c4cc[n+](C)cc4)c4ccc(cc5nc(cc6ccc2[nH]6)C=C5)[nH]4)C=C3)cc1`, the KD (up to 25 μM) was determined as 18.90 ± 2.80 µM.

The molecule `C[n+]1ccc(-c2c3nc(cc4ccc([nH]4)c(-c4cc[n+](C)cc4)c4nc(cc5ccc2[nH]5)C=C4)C=C3)cc1` gave a KD (up to 6.25 μM) of 0.83 ± 0.10 µM. This lies in the sub-micromolar range.
